{
  "source": "patent US20160122320A1",
  "about": "“USEFUL COMBINATIONS OF MONOBACTAM ANTIBIOTICS WITH BETA-LACTAMASE INHIBITORS” (Basilea Pharmaceutica AG, priority 2005, published 2016)",
  "assay_in_all_cases": "MIC, NCCLS broth microdilution",
  "assay_type_in_all_cases": "cell-based",
  "key": {"[1]": {"system": "Enterobacter aerogenes B1"}, "[2]": {"system": "Pseudomonas aeruginosa MK1184", "conditions": "with 102 and sulbactam"}, "[3]": {"system": "Stenotrophomonas malthophilia 1AC736", "conditions": "Stenotrophomonas maltophilia 1AC736"}, "[4]": {"system": "Pseudomonas aeruginosa 1973E", "method_in_brief": "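Broth microdilution following NCCLS M7-A5, with final DMSO ≤1%. Plates were incubated overnight at 30° C. or 37° C. and growth was read by eye; MIC is the lowest concentration giving complete inhibition of visible growth. In combination tests the formula I compound was serially diluted while partner compounds were held at 4 μg/mL each.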"}, "Serratia marcescens S6": {"system": "Serratia marcescens S6"}, "[5]": {"system": "Enterobacter aerogenes Zayakosky", "conditions": "Enterobacter aerogenes Zayakosky; + compound 323 and sulbactam, 4 mg/L each"}, "[6]": {"system": "Klebsiella pneumoniae CF104"}, "Acinetobacter sp. J2": {"system": "Acinetobacter sp. J2", "conditions": "Acinetobacter baumannii J2"}},
  "data": [
    {"molecule": "C[C@H]1[C@H](NC(=O)/C(=N\\OC(C)(C)C(=O)O)c2csc(N)n2)C(=O)N1S(=O)(=O)O", "note": "[Aztreonam, aztreonam, reference compound]", "values": [
      {"measurement": "Minimal Inhibitory Concentration of antibiotic at fixed inhibitor concentration of 4 mg/L", "setting": "[1]; + compound 206 4 mg/L", "value": 8, "unit": "mg/L"},
      {"measurement": "Minimal Inhibitory Concentration of antibiotic at fixed inhibitor concentration of 4 mg/L", "setting": "[1]; + compound 323 and sulbactam, 4 mg/L each", "value": 8, "unit": "mg/L"},
      {"measurement": "MIC of antibiotic at fixed inhibitor concentration of 4 mg/L", "setting": "[2]", "value": 16, "unit": "µg/mL"},
      {"measurement": "MIC of antibiotic at fixed inhibitor concentration of 4 mg/L", "setting": "[3]; with 102 and clavulanate", "value": 4, "unit": "µg/mL"},
      {"measurement": "MIC of antibiotic at fixed inhibitor concentration of 4 mg/L", "setting": "[3]; with 102 and sulbactam", "value": 8, "unit": "µg/mL"},
      {"measurement": "MIC of antibiotic", "setting": "[4]; antibiotic alone, no inhibitor", "value": 8, "unit": "µg/mL"},
      {"measurement": "MIC of antibiotic at fixed inhibitor concentration of 4 mg/L", "setting": "[4]; with 102 and clavulanate", "value": 8, "unit": "µg/mL"},
      {"measurement": "MIC of antibiotic at fixed inhibitor concentration of 4 mg/L", "setting": "[4]; with 102 and sulbactam", "value": 4, "unit": "µg/mL"},
      {"measurement": "MIC of antibiotic at fixed inhibitor concentration of 4 mg/L", "setting": "Serratia marcescens S6; with 102 and clavulanate", "value": 2, "unit": "µg/mL"},
      {"measurement": "MIC of antibiotic at fixed inhibitor concentration of 4 mg/L", "setting": "Serratia marcescens S6; with 102 and sulbactam", "value": 2, "unit": "µg/mL"},
      {"measurement": "Minimal Inhibitory Concentration of antibiotic at fixed inhibitor concentration of 4 mg/L", "setting": "[5]", "value": 8, "unit": "mg/L"},
      {"measurement": "MIC of antibiotic at fixed inhibitor concentration of 4 mg/L", "setting": "[6]; with 102 and clavulanate", "value": 0.5, "unit": "µg/mL"},
      {"measurement": "MIC of antibiotic at fixed inhibitor concentration of 4 mg/L", "setting": "[6]; with 102 and sulbactam", "value": 1, "unit": "µg/mL"},
      {"measurement": "MIC of antibiotic at fixed inhibitor concentration of 4 mg/L", "setting": "Acinetobacter sp. J2; with 102 and clavulanate", "value": 16, "unit": "µg/mL"},
      {"measurement": "MIC of antibiotic at fixed inhibitor concentration of 4 mg/L", "setting": "Acinetobacter sp. J2; with 102 and sulbactam", "value": 4, "unit": "µg/mL"}
    ]}
  ]
}
